Experimental data: publication PMC9607537, “Understanding the Antilymphoma Activity of Annona macroprophyllata Donn and Its Acyclic Terpenoids: In Vivo, In Vitro, and In Silico Studies” (Molecules, 2022)
Read-outs that look alike come from different tables or passages of the source.

Tests used:
in vivo = conditions: female, Balb/c, mouse, in vivo, po
Method: (§1) Twenty-four female mice of the Balb/c strain were randomly used to form 8 groups (n = 3). […] The control group was administered with only the vehicle (Tween 80 at 2% in water) and for the compounds, doses of 500 and 1000 mg kg^−1 were administered. […] Subsequently, we sacrificed the animals and extracted the organs (stomach, intestines, spleen, liver, and kidneys) were extracted, reporting the pathological changes, if any.

[1] = system: lymph node growth in mice inoculated with U-937 cells; assay: Antilymphoma activity in Balb/c mice inoculated with U-937 cells; type: in vivo; conditions: oral, 9 days treatment, mean ± SEM, n = 6; for ED50 Female (inhibition of lymph node growth): female Balb/c mice inoculated with U-937 cells; for ED50 Male (inhibition of lymph node growth): male Balb/c mice inoculated with U-937 cells
Text: We induced lymphoma following the method of Calzada et al.. We randomly formed fifteen groups of male mice and of female mice (n = 6). […] After cell inoculation, we observed all animals for the following 28 days, after which we orally administered treatments for 9 days. Over the following 28 days, we recorded the weight and survival of the animals. Finally, at day 65, we sacrificed the animals and removed and weighed the left and right axillary and inguinal lymph nodes.

U-937 cell line = system: U-937 cell line; parameters: method as in PMID 34638856; conditions: viability analysis by flow cytometry; cited from earlier work
U-937 cells = assay: cells; conditions: read-out: CC50 (median cytotoxic concentration causing 50% cell death)
Method: The cell line U-937 was acquired (ATCC: CRL 1593.2, Middlesex, UK) and characterized as a type of diffuse monocytic NHL; for its propagation two million cells were used and seeded in RPMI 1640 medium (Roswell Park Memorial Institute) supplemented with 2 mM L-glutamine, 10% v/v fetal bovine serum (Thermo), 100 mM 1% sodium pyruvate, and 1% penicillin/streptomycin. The cells were kept in an atmosphere with a concentration of carbon dioxide (CO2) at 5% at 37 °C.
We evaluated the in vitro cytotoxic activity using the cell proliferation reagent WST-1, based on the cleavage of tetrazolium salts to formazan by the enzyme mitochondrial dehydrogenase. For cell proliferation, the Quick Cell Proliferation Kit II (Abcam, Cambridge, UK, Cat. No. ab65475) was used, 96-well plates were used and 2 × 10^5 cells per well were seeded in a final volume of 100 µL/well of culture medium. […] After 24 h, viability was assessed by the addition of 10 µL of WST-1 reagent and the cells were further incubated for 2 h at 37 °C and 5% CO2. Finally, the absorbance at 440 nm was measured using a microplate reader.

Artemia salina larvae = assay: Brine shrimp lethality (BSL) test; type: in vivo; conditions: mortality at 24 h, mean ± SEM
Method: To obtain the LD50 of the thirteen compounds isolated by TLC, we performed the brine shrimp assay according to the procedure described by Meyer et al.. We exposed groups of 10 shrimp in brine to concentrations of 0.5, 1, 5, 10 µg mL^−1 of each product (P1-P13). The concentrations were reached by dissolving the compounds in 2 mL of ethanol, subsequently transferring to different flasks. After evaporating the solvent at room temperature, we introduced the BS and adjusted the volume with artificial seawater to 5 mL. We performed this test in triplicate for each compound.

Balb/c mice = assay: in vivo; conditions: for TI Female (therapeutic index, LD50/ED50) / TI Male (therapeutic index, LD50/ED50): LD50 acute oral toxicity / ED50 antilymphoma activity; for TI Female (therapeutic index, LD50/ED50): female mice; for OECD acute systemic toxicity category: acute oral toxicity, OECD guideline 423; for OECD acute systemic toxicity category / Mortality in acute oral toxicity test: mice; for Mortality in acute oral toxicity test: until end of study (14 days); for TI Male (therapeutic index, LD50/ED50): male mice
Method: as §1

CN(Cc1cnc2nc(N)nc(N)c2n1)c1ccc(C(=O)N[C@@H](CCC(=O)O)C(=O)O)cc1 [MTX, methotrexate, reference compound]
LD50 at 14 days (in vivo): 335 ± 0.39 mg/kg | ED50 Female (inhibition of lymph node growth) [1]: 1.31 ± 0.34 mg/kg | ED50 Male (inhibition of lymph node growth) [1]: 0.99 ± 0.024 mg/kg | CC50 (U-937 cell line): 0.5 µM | CC50 (U-937 cells; Homo sapiens, U-937, 24 h): 243 ± 7 µM

CC(C)=CCC/C(C)=C/CC/C(C)=C/CC/C(C)=C/CO [Gg, (2E,6E,10E)-3,7,11,15-tetramethylhexadeca-2,6,10,14-tetraen-1-ol]
LD50 (median lethal dose causing 50% of A. salina death) (Artemia salina larvae; n = 3): 1.41 ± 0.42 µg/mL | TI Female (therapeutic index, LD50/ED50) (Balb/c mice): 138.5 | OECD acute systemic toxicity category (Balb/c mice): category 4 (category 4, low risk > 300 and ≤2000 mg/kg) | TI (therapeutic index) in both sexes (Balb/c mice): > 100 | Mortality in acute oral toxicity test (Balb/c mice; single oral dose): caused death in the animals | LD50 at 14 days (in vivo): 742.17 ± 0.34 mg/kg | ED50 Female (inhibition of lymph node growth) [1]: 7.22 ± 0.51 mg/kg | ED50 Male (inhibition of lymph node growth) [1]: 6.98 ± 0.57 mg/kg | CC50 (U-937 cells; Homo sapiens, U-937, 24 h): 395 ± 5 µM

(2E,7R,11R)-3,7,11,15-tetramethylhexadec-2-en-1-ol [PT]
LD50 (median lethal dose causing 50% of A. salina death) (Artemia salina larvae; n = 3): 3.03 ± 0.33 µg/mL | TI Female (therapeutic index, LD50/ED50) (Balb/c mice): 149.03 | TI Male (therapeutic index, LD50/ED50) (Balb/c mice): 171.52 | OECD acute systemic toxicity category (Balb/c mice): category 4 (category 4, low risk > 300 and ≤2000 mg/kg) | TI (therapeutic index) in both sexes (Balb/c mice): > 100 | LD50 (median lethal dose, acute oral toxicity) (Balb/c mice; female Balb/c mice, single oral dose, 14 days observation, n = 3): >1000 mg/kg | Mortality in acute oral toxicity test (Balb/c mice; single oral dose): did not cause mortality | ED50 Female (inhibition of lymph node growth) [1]: 6.71 ± 0.31 mg/kg | ED50 Male (inhibition of lymph node growth) [1]: 5.83 ± 0.50 mg/kg | CC50 (U-937 cells; U-937 cells, 24 h exposure, WST-1, mean ± SEM, n = 3): 296 ± 70 µM

CC(=O)OC/C=C(\C)CC/C=C(\C)CCC=C(C)C [FA, [(E,E)-3,7,11-trimethyldodeca-2,6,10-trienyl] acetate]
LD50 (median lethal dose causing 50% of A. salina death) (Artemia salina larvae; n = 3, listed as AF): 5.82 ± 0.58 µg/mL | LD50 (median lethal dose causing 50% of A. salina death) (Artemia salina larvae; n = 3, listed as FA (P10)): 5.82 ± 0.58 µg/mL | TI Female (therapeutic index, LD50/ED50) (Balb/c mice): 169.77 | TI Male (therapeutic index, LD50/ED50) (Balb/c mice): 196.46 | OECD acute systemic toxicity category (Balb/c mice): category 4 (category 4, low risk > 300 and ≤2000 mg/kg) | TI (therapeutic index) in both sexes (Balb/c mice): > 100 | Mortality in acute oral toxicity test (Balb/c mice; single oral dose): did not cause mortality | LD50 at 14 days (in vivo): > 1000 mg/kg | ED50 Female (inhibition of lymph node growth) [1]: 5.89 ± 0.39 mg/kg | ED50 Male (inhibition of lymph node growth) [1]: 5.09 ± 0.66 mg/kg | CC50 (U-937 cells; Homo sapiens, U-937, 24 h): 275 ± 80 µM
